Experimental data reported in patent US20220233549A1, “METHOD FOR ALPHAVIRUS INHIBITION” (priority 2019, published 2022).

Tested on: CHIKV 181/clone25
Experiment: CHIKV cytopathic effect (CPE) protection assay in Vero cells
Format: cell-based
Conditions: Chikungunya virus; CHIKV 181/clone25, Vero cells, MOI=0.01, 48 hrs, protection from CPE (crystal violet, absorbance 595nm)

Compound | EC50 [µM]
Cc1ccc(CNC(=O)CC2Sc3ncccc3N(C)C2=O)o1 (stereo not shown) [Example 33, 2-(1-methyl-2-oxo-2,3-dihydro-1H-pyrido[2,3-b][1,4]thiazin-3-yl)-N-((5-methylfuran-2-yl)methyl)acetamide] | > 100
CCCN1CCN(C(=O)CC2Sc3ncccc3N(C)C2=O)CC1 (stereo not shown) [Example 34, 1-methyl-3-(2-oxo-2-(4-propylpiperazin-1-yl)ethyl)-1H-pyrido[2,3-b][1,4]thiazin-2(3H)-one] | > 100
CC1CCCN(C(=O)CC2Sc3ncccc3N(C)C2=O)C1 (stereo not shown) [Example 35, 1-methyl-3-(2-(3-methylpiperidin-1-yl)-2-oxoethyl)-1H-pyrido[2,3-b][1,4]thiazin-2(3H)-one] | > 100
CC1CCN(C(=O)CC2Sc3ncccc3N(C)C2=O)CC1 (stereo not shown) [Example 36, 1-methyl-3-(2-(4-methylpiperidin-1-yl)-2-oxoethyl)-1H-pyrido[2,3-b][1,4]thiazin-2(3H)-one] | > 100
CN1C(=O)C(CC(=O)N2CCCC2)Sc2ncccc21 (stereo not shown) [Example 37, 1-methyl-3-(2-oxo-2-(pyrrolidin-1-yl)ethyl)-1H-pyrido[2,3-b][1,4]thiazin-2(3H)-one] | > 100
CN1C(=O)C(CC(=O)N2CCCCC2)Sc2ncccc21 (stereo not shown) [Example 38, 1-methyl-3-(2-oxo-2-(piperidin-1-yl)ethyl)-1H-pyrido[2,3-b][1,4]thiazin-2(3H)-one] | > 100
CC(NC(=O)CC1Sc2ncccc2N(C)C1=O)c1cccnc1 (stereo not shown) [Example 39, 2-(1-methyl-2-oxo-2,3-dihydro-1H-pyrido[2,3-b][1,4]thiazin-3-yl)-N-(1-(pyridin-3-yl)ethyl)acetamide] | > 100
CC1CCCCN1CCNC(=O)CC1Sc2ncccc2N(C)C1=O (stereo not shown) [Example 40, 2-(1-methyl-2-oxo-2,3-dihydro-1H-pyrido[2,3-b][1,4]thiazin-3-yl)-N-(2-(2-methylpiperidin-1-yl)ethyl)acetamide] | > 100
CN1C(=O)C(CC(=O)NCc2cccs2)Sc2ncccc21 (stereo not shown) [Example 41, 2-(1-methyl-2-oxo-2,3-dihydro-1H-pyrido[2,3-b][1,4]thiazin-3-yl)-N-(thiophen-2-ylmethyl)acetamide] | 10 to 49.9
CCN1C(=O)C(CC(=O)NCc2ccncc2)Sc2ncccc21 (stereo not shown) [Example 42, 2-(1-ethyl-2-oxo-2,3-dihydro-1H-pyrido[2,3-b][1,4]thiazin-3-yl)-N-(pyridin-4-ylmethyl)acetamide] | > 100
CCN1C(=O)C(CC(=O)NCc2ccccc2)Sc2ncccc21 (stereo not shown) [Example 43, N-benzyl-2-(1-ethyl-2-oxo-2,3-dihydro-1H-pyrido[2,3-b][1,4]thiazin-3-yl)acetamide] | > 100
CCN1C(=O)C(CC(=O)NCC2CCCCC2)Sc2ncccc21 (stereo not shown) [Example 44, N-(cyclohexylmethyl)-2-(1-ethyl-2-oxo-2,3-dihydro-1H-pyrido[2,3-b][1,4]thiazin-3-yl)acetamide] | 10 to 49.9
CCN1C(=O)C(CC(=O)N2CCCCCC2)Sc2ncccc21 (stereo not shown) [Example 45, 3-(2-(azepan-1-yl)-2-oxoethyl)-1-ethyl-1H-pyrido[2,3-b][1,4]thiazin-2(3H)-one] | > 100
CCN1C(=O)C(CC(=O)NCC2CC2)Sc2ncccc21 (stereo not shown) [Example 46, N-(cyclopropylmethyl)-2-(1-ethyl-2-oxo-2,3-dihydro-1H-pyrido[2,3-b][1,4]thiazin-3-yl)acetamide] | > 100
O=C(CC1Sc2ncccc2NC1=O)NCC1CCSCC1 (stereo not shown) [Example 47, 2-(2-oxo-2,3-dihydro-1H-pyrido[2,3-b][1,4]thiazin-3-yl)-N-((tetrahydro-2H-thiopyran-4-yl)methyl)acetamide] | 10 to 49.9
O=C(CC1Sc2ncccc2NC1=O)NCC1CCOCC1 (stereo not shown) [Example 48, 2-(2-oxo-2,3-dihydro-1H-pyrido[2,3-b][1,4]thiazin-3-yl)-N-((tetrahydro-2H-pyran-4-yl)methyl)acetamide] | > 100

Compound | EC50 [µM]
O=C(CC1Sc2ncccc2NC1=O)NCc1ccc(Cl)c(Cl)c1 (stereo not shown) [Example 49, N-(3,4-dichlorobenzyl)-2-(2-oxo-2,3-dihydro-1H-pyrido[2,3-b][1,4]thiazin-3-yl)acetamide] | > 100
O=C(CC1Sc2ncccc2NC1=O)NCc1ccc(F)c(F)c1 (stereo not shown) [Example 50, N-(3,4-difluorobenzyl)-2-(2-oxo-2,3-dihydro-1H-pyrido[2,3-b][1,4]thiazin-3-yl)acetamide] | 10 to 49.9
O=C(CC1Sc2ncccc2NC1=O)NCc1cc(F)c(F)c(F)c1 (stereo not shown) [Example 51, 2-(2-oxo-2,3-dihydro-1H-pyrido[2,3-b][1,4]thiazin-3-yl)-N-(3,4,5-trifluorobenzyl)acetamide] | 50 to 99.9
O=C(CC1Sc2ncccc2NC1=O)NCc1cc(F)cc(F)c1 (stereo not shown) [Example 52, N-(3,5-difluorobenzyl)-2-(2-oxo-2,3-dihydro-1H-pyrido[2,3-b][1,4]thiazin-3-yl)acetamide] | > 100
O=C(CC1Sc2ncccc2NC1=O)NCc1ccc(Cl)cc1 (stereo not shown) [Example 53, N-(4-chlorobenzyl)-2-(2-oxo-2,3-dihydro-1H-pyrido[2,3-b][1,4]thiazin-3-yl)acetamide] | 10 to 49.9
O=C(CC1Sc2ncccc2NC1=O)NCc1cccc(Cl)c1 (stereo not shown) [Example 54, N-(3-chlorobenzyl)-2-(2-oxo-2,3-dihydro-1H-pyrido[2,3-b][1,4]thiazin-3-yl)acetamide] | > 100
O=C(CC1Sc2ncccc2NC1=O)NCc1cccc(F)c1 (stereo not shown) [Example 55, N-(3-fluorobenzyl)-2-(2-oxo-2,3-dihydro-1H-pyrido[2,3-b][1,4]thiazin-3-yl)acetamide] | > 100
O=C(CC1Sc2ncccc2NC1=O)NCc1ccc(F)cc1 (stereo not shown) [Example 56, N-(4-fluorobenzyl)-2-(2-oxo-2,3-dihydro-1H-pyrido[2,3-b][1,4]thiazin-3-yl)acetamide] | < 10
O=C(CC1Sc2ncccc2NC1=O)NCCc1ccc(F)cc1 (stereo not shown) [Example 57, N-(4-fluorophenethyl)-2-(2-oxo-2,3-dihydro-1H-pyrido[2,3-b][1,4]thiazin-3-yl)acetamide] | 10 to 49.9
O=C(CC1Sc2ncccc2NC1=O)NCCC1CCCCC1 (stereo not shown) [Example 58, N-(2-cyclohexylethyl)-2-(2-oxo-2,3-dihydro-1H-pyrido[2,3-b][1,4]thiazin-3-yl)acetamide] | 10 to 49.9
O=C(CC1Sc2ccccc2NC1=O)NCC1CCCCC1 (stereo not shown) [Example 59, N-(cyclohexylmethyl)-2-(3-oxo-3,4-dihydro-2H-benzo[b][1,4]thiazin-2-yl)acetamide] | > 100
O=C(CC1Sc2ncccc2NC1=O)NCC1CCC(F)(F)CC1 (stereo not shown) [Example 60, N-((4,4-difluorocyclohexyl)methyl)-2-(2-oxo-2,3-dihydro-1H-pyrido[2,3-b][1,4]thiazin-3-yl)acetamide] | 10 to 49.9
CCC(CC)CNC(=O)CC1Sc2ncccc2NC1=O (stereo not shown) [Example 61, N-(2-ethylbutyl)-2-(2-oxo-2,3-dihydro-1H-pyrido[2,3-b][1,4]thiazin-3-yl)acetamide] | 10 to 49.9
O=C(CC1Sc2ncccc2NC1=O)NCC1CCCCCC1 (stereo not shown) [Example 62, N-(cycloheptylmethyl)-2-(2-oxo-2,3-dihydro-1H-pyrido[2,3-b][1,4]thiazin-3-yl)acetamide] | 10 to 49.9
O=C(CC1Sc2ncccc2NC1=O)NCC1CCCC1 (stereo not shown) [Example 63, N-(cyclopentylmethyl)-2-(2-oxo-2,3-dihydro-1H-pyrido[2,3-b][1,4]thiazin-3-yl)acetamide] | < 10
